Counter-ions that a name gives are not always drawn.
Columns and labels:
[1] = molecular target: T1, PLK1 kinase domain (Homo sapiens, UniProt P53350); assay: Assay for inhibition of PLK1 (SPA, 33P-ATP, His-tagged PLK kinase domain); type: biochemical; conditions: 2 μM ATP, read-out: Ave pIC50 PLK Enzyme Inhibition (converted)
T1 construct: made in house; host or cells: baculovirus-infected T. ni insect cells
Experimental: I. Assay for Inhibition of PLK1
A. Preparation of 6× N-terminal His-tagged PLK Kinase Domain
6× N-terminal His-tagged PLK kinase domain (amino acids 21-346 preceded by […]) was prepared from baculovirus infected T. ni cells under polyhedrin promoter control. All procedures were performed at 4° C. Cells were lysed in 25 mM HEPES, 200 mM NaCl, 25 mM imidazole; pH 8.0. The homogenate was centrifuged at 14K rpm in a SLA-1500 rotor for 40 min and the supernatant filtered through a 1.2 micron filter. The supernatant was loaded onto a Nickel chelating Sepharose (Amersham Pharmacia) column and washed with 25 mM HEPES, 500 mM NaCl, 25 mM imidazole; pH 8.0. The column was then washed with a 16.6% B step where buffer B is 25 mM HEPES, 500 mM NaCl, 300 mM imidazole; pH 8.0. Protein was eluted using a 10-column volume linear gradient from 16.6% B to 100% B. Fractions containing PLK were determined by SDS-PAGE. PLK was concentrated using a 10 kDa molecular weight cutoff membrane and then loaded onto a Superdex 75 gel filtration (Amersham Pharmacia) column equilibrated in 25 mM HEPES, 1 mM DTT, 500 mM NaCl; pH 8.0. Fractions containing PLK were determined by SDS-PAGE. PLK was pooled, aliquoted and stored at −80° C. Samples were quality controlled using mass spectrometry.
B. Enzyme Activity+/−Inhibitors was Determined as Follows:
Compounds were added to the plate (1 μl in 100% DMSO). DMSO (2% final) and EDTA (55.5 mM final) were used as controls. Reaction Mix A is prepared as follows at 4° C.:
Reaction Mix A (substrate Mix): • 25 mM HEPES, pH 7.2 • 15 mM MgCl2 • 2 μM ATP • 0.1 μCi/well ^33P-γ ATP (10 Ci/mMol) • 2 μM substrate peptide (Biotin-Ahx-[…]) Reaction Mix B is prepared as follows at 4° C.:
Reaction Mix B (Enzyme Mix) • 25 mM HEPES, pH 7.2 • 15 mM MgCl2 • 0.15 mg/ml BSA • 2 mM DTT • 2-10 nM PLK1 kinase domain
Reaction Mix A (20 μl) is added per well. Reaction Mix B (20 μl) is added per well. Incubate 1.5 hrs. at RT. The enzymatic reaction is stopped with 175 μl of SPA/EDTA bead mix (29 mM EDTA, 2.5 mg/ml Streptavidin-coated SPA in Standard Dulbecco's PBS (without Mg^2+ and Ca^2+), 60 μM ATP). Plates are sealed spun (after a 1 hr incubation at RT) at 1,000×g for 7 min or settled overnight, then plates counted in Packard TopCount for 30 seconds/well.

[2] = system: H460 lung tumor cell line; assay: Methylene Blue Growth Inhibition Assay, H460; type: cell-based; conditions: Homo sapiens, NCI-H460, 72 h; H460 cells, 3 days; read-out: MeB Cell Line IC50
Experimental: (§1) II. Methylene Blue Growth Inhibition Assay
(§2) Normal Human foreskin fibroblasts (HFF) and human colon (HCT116, RKO), lung (H460), prostate (PC3), and breast tumor (MCF7) cell lines were cultured in high glucose DMEM (Life Technologies) containing 10% fetal bovine serum (FBS) at 37° C. in a humidified 10% CO2, 90% air incubator. Cells were harvested using trypsin/EDTA, counted using a haemocytometer, and plated in 100 μl of the appropriate media, at the following densities, in a 96-well tissue culture plate (Falcon 3075): HFF 5,000 cells/well, HCT116 3,000 cells/well, RKO 2,500 cells/well, H460 2,000 cells/well, PC3 8,000 cells/well, MCF7 4,000 cells/well. The next day, compounds were diluted in DMEM containing 100 μg/ml gentamicin, at twice the final required concentration, from 10 mM stock solutions in DMSO. 100 μl/well of these dilutions were added to the 100 μl of media currently on the cell plates. Medium containing 0.6% DMSO was added to control wells. Compounds diluted in DMEM were added to all cell lines. The final concentration of DMSO in all wells was 0.3%. Cells were incubated at 37° C., 10% CO2 for 3 days. Medium was removed by aspiration. Cell biomass was estimated by staining cells with 90 μl per well methylene blue (Sigma M9140, 0.5% In 50:50 ethanol:water), and incubation at room temperature for at least 30 minutes. Stain was removed, and the plates rinsed under a gentle stream of water, and air-dried. To release stain from the cells 100 μl of solubilization solution was added (1% N-lauroyl sarcosine, Sodium salt, Sigma L5125, in PBS), and plates were shaken gently for about 30 minutes. Optical density at 620 nm was measured on a microplate reader. Percent inhibition of cell growth was calculated relative to vehicle treated control wells. Concentration of compound that inhibits 50% of cell growth (IC50) was interpolated using nonlinear regression (Levenberg-Marquardt) and the equation, y=Vmax*(1−(x/(K+x)))+Y2, where “K” was equal to the IC50. In Table 1, +=10->30 uM; ++=1-10 uM: +++=<1 uM.

[3] = system: HCT116 colon tumor cell line; assay: Methylene Blue Growth Inhibition Assay, HCT116; type: cell-based; conditions: Homo sapiens, HCT-116, 72 h; HCT116 cells, 3 days; read-out: MeB Cell Line IC50
Experimental: as §1, §2

[4] = system: Normal Human foreskin fibroblasts (HFF); assay: Methylene Blue Growth Inhibition Assay, HFF; type: cell-based; conditions: 72 h, HFF cells, 3 days, read-out: MeB Cell Line IC50
Experimental: as §1, §2

[5] = system: MCF7 breast tumor cell line; assay: Methylene Blue Growth Inhibition Assay, MCF7; type: cell-based; conditions: Homo sapiens, 72 h; MCF7 cells, 3 days; read-out: MeB Cell Line IC50
Experimental: as §1, §2

[6] = system: PC3 prostate tumor cell line; assay: Methylene Blue Growth Inhibition Assay, PC3; type: cell-based; conditions: Homo sapiens, PC-3, 72 h; PC3 cells, 3 days; read-out: MeB Cell Line IC50
Experimental: as §1, §2

[7] = system: RKO colon tumor cell line; assay: Methylene Blue Growth Inhibition Assay, RKO; type: cell-based; conditions: Homo sapiens, 72 h; RKO cells, 3 days; read-out: MeB Cell Line IC50
Experimental: as §1, §2

T1 sequence (P53350 21-346): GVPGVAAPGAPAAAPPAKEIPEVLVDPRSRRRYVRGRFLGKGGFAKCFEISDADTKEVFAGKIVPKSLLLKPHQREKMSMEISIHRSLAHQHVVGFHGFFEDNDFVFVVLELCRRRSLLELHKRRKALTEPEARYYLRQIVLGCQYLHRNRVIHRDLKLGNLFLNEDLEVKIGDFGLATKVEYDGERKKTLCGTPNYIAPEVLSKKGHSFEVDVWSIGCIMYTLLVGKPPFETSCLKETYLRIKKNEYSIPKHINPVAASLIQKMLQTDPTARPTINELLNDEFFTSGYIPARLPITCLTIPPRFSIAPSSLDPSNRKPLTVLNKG

| SMILES | IC50 [1] | other results |
| --- | --- | --- |
| COc1cc(Nc2ncc([N+](=O)[O-])c(Nc3ccccc3C(=O)O)n2)cc(OC)c1OC [Example 1, 2-({5-nitro-2-[(3,4,5-trimethoxyphenyl)amino]pyrimidin-4-yl}amino)benzoic acid hydrochloride] | < 0.1 µM |  |
| COc1cc(Nc2ncc([N+](=O)[O-])c(Nc3ccccc3C(N)=O)n2)cc(OC)c1OC [Example 3, 2-({5-nitro-2-[(3,4,5-trimethoxyphenyl)amino]pyrimidin-4-yl}amino)benzamide hydrochloride] |  | IC50 [2]: < 1 µM; IC50 [3]: < 1 µM; IC50 [4]: 1 to 10 µM; IC50 [5]: < 1 µM; IC50 [6]: 1 to 10 µM; IC50 [7]: < 1 µM |
| COc1cc(Nc2ncc([N+](=O)[O-])c(Nc3ccccc3C(=O)NC(C)(C)C)n2)cc(OC)c1OC [Example 5, N-(tert-butyl)-2-({5-nitro-2-[(3,4,5-trimethoxyphenyl)amino]pyrimidin-4-yl}amino)benzamide hydrochloride] | < 0.1 µM | IC50 [2]: 1 to 10 µM; IC50 [3]: 1 to 10 µM; IC50 [4]: 1 to 10 µM; IC50 [5]: 1 to 10 µM; IC50 [6]: 1 to 10 µM; IC50 [7]: 1 to 10 µM |
| COc1cc(Nc2ncc(Br)c(Nc3ccccc3C(C)=O)n2)cc(OC)c1OC [Example 11, 1-[2-({5-bromo-2-[(3,4,5-trimethoxyphenyl)amino]pyrimidin-4-yl}amino)phenylethanone hydrochloride] | < 0.1 µM |  |
| CNC(=O)c1ccccc1Nc1nc(Nc2ccc(NC(C)=O)cc2)ncc1[N+](=O)[O-] [Example 13, 2-[(2-{[4-(acetylamino)phenyl]amino}-5-nitropyrimidin-4-yl)amino]-N-methylbenzamide hydrochloride] | < 0.1 µM |  |
| COC(=O)c1ccccc1Nc1nc(Nc2cc(OC)c(OC)c(OC)c2)ncc1[N+](=O)[O-] [Example 17, Methyl 2-({5-nitro-2-[(3,4,5-trimethoxyphenyl)amino]pyrimidin-4-yl}amino)benzoate hydrochloride] | < 0.1 µM |  |
| CC(=O)Nc1ccc(Nc2ncc([N+](=O)[O-])c(Nc3ccccc3C(=O)OC3CCCCC3)n2)cc1 [Example 21, Cyclohexyl 2-[(2-{[4-(acetylamino)phenyl]amino}-5-nitropyrimidin-4-yl)amino]benzoate hydrochloride] | < 0.1 µM |  |
| CC(=O)Nc1ccc(Nc2ncc([N+](=O)[O-])c(Nc3ccccc3C(=O)O)n2)cc1 [Example 23, 2-[(2-{[4-(Acetylamino)phenyl]amino}-5-nitropyrimidin-4-yl)amino]benzoic acid hydrochloride] | < 0.1 µM |  |
| CC(=O)Nc1ccc(Nc2ncc(Br)c(Nc3ccccc3C(C)=O)n2)cc1 [Example 24, N-[4-({4-[(2-Acetylphenyl)amino]-5-bromopyrimidin-2-yl}amino)phenyl]acetamide hydrochloride] | < 0.1 µM |  |
| CC(=O)Nc1ccc(Nc2ncc(Br)c(Nc3ccccc3N3CCOCC3)n2)cc1 [Example 25, N-[4-({5-Bromo-4-[(2-morpholin-4-ylphenyl)amino]pyrimidin-2-yl}amino)phenyl]acetamide hydrochloride] | < 0.1 µM |  |
| COc1cc(Nc2ncc(Br)c(Nc3ccccc3N3CCOCC3)n2)cc(OC)c1OC [Example 27, 5-Bromo-N^4-(2-morpholin-4-ylphenyl)-N^2-(3,4,5-trimethoxyphenyl)-pyrimidine-2,4-diamine hydrochloride] | 0.1 to 10 µM |  |
| COc1cc(Nc2nc(Nc3ccc(NC(C)=O)cc3)ncc2Br)cc(OC)c1OC [Example 28, N-[4-(5-Bromo-4-[(3,4,5-trimethoxyphenyl)amino]pyrimidin-2-yl}amino)phenyl]acetamide hydrochloride] | > 10 µM |  |
| COC(=O)c1ccc(C(=O)OC)c(Nc2nc(Nc3ccc(NC(C)=O)cc3)ncc2[N+](=O)[O-])c1 [Example 29, Dimethyl 2-[(2-{[4-(acetylamino)phenyl]amino}-5-nitropyrimidin-4-yl)amino]terephthalate hydrochloride] | 0.1 to 10 µM |  |
| CC(=O)Nc1ccc(Nc2ncc([N+](=O)[O-])c(Nc3ccccc3C(=O)OCc3ccccc3)n2)cc1 [Example 30, Benzyl 2-[(2-{[4-(acetylamino)phenyl]amino}-5-nitropyrimidin-4-yl)amino]benzoate hydrochloride] | 0.1 to 10 µM |  |
| COC(=O)c1c(C)cccc1Nc1nc(Nc2ccc(NC(C)=O)cc2)ncc1[N+](=O)[O-] [Example 31, Methyl 2-[(2-{[4-(acetylamino)phenyl]amino}-5-nitropyrimidin-4-yl)amino]-6-methylbenzoate hydrochloride] | < 0.1 µM |  |
| CC(=O)Nc1ccc(Nc2ncc([N+](=O)[O-])c(Nc3ccccc3C(=O)OCC(C)C)n2)cc1 [Example 32, Isobutyl 2-[(2-{[4-(acetylamino)phenyl]amino}-5-nitropyrimidin-4-yl)amino]benzoate hydrochloride] | < 0.1 µM |  |
| CC(=O)Nc1ccc(Nc2ncc([N+](=O)[O-])c(Nc3cccc(C)c3C(=O)O)n2)cc1 [Example 33, 2-[(2-{[4-(Acetylamino)phenyl]amino}-5-nitropyrimidin-4-yl)amino]-6-methylbenzoic acid hydrochloride] | < 0.1 µM |  |
| COc1cc(Nc2ncc([N+](=O)[O-])c(Nc3ccccc3C(C)=O)n2)cc(OC)c1OC [Example 35, 1-[2-({5-Nitro-2-[(3,4,5-trimethoxyphenyl)amino]pyrimidin-4-yl}amino)phenyl]ethanone hydrochloride] | < 0.1 µM |  |
| COc1cc(Nc2ncc([N+](=O)[O-])c(Nc3cccc4ccc(O)cc34)n2)cc(OC)c1OC [Example 37, 8-({5-Nitro-2-[(3,4,5-trimethoxyphenyl)amino]pyrimidin-4-yl}amino)-2-naphthol hydrochloride] | < 0.1 µM |  |
| COc1cc(Nc2ncc(C(C)=O)c(Nc3ccccc3C(=O)NC(C)(C)C)n2)cc(OC)c1OC [Example 38, N-(tert-butyl)-2-({5-methyl ketone-2-[(3,4,5-trimethoxyphenyl)amino]pyrimidin-4-yl}amino) benzamide] | < 0.1 µM |  |
